Reference: US6887712B1, “Methods and compositions to lower plasma cholesterol levels” (AtheroGenics, Inc., priority 1998, dated 2005)

What was measured:
total plasma cholesterol = test: Cholesterol lowering in mice lacking functional LDL receptors; type: in vivo, mouse; conditions: LDL receptor-deficient mice, 150 mg/kg/day oral with high fat/high cholesterol diet, 12 weeks
Description: To explore whether the enhanced clearance is mediated by the tissue LDL receptors, the major clearance mechanism for LDL in the body, the LDL lowering activity of the monosuccinic acid ester of probucol was tested in a mouse model that lacks functional LDL receptors (eliminated through genetic engineering).

apoB-100 epitope in VLDL = target: T1, apoB-100 epitope in VLDL (Homo sapiens, UniProt P04114); test: Immunoreactivity sandwich ELISA with VLDL; type: binding; conditions: FIG. 6b
T1 construct: relative to the native VLDL; from tissue; host or cells: VLDL particles (plasma lipoprotein)
T1 sequence (P04114 28-4563): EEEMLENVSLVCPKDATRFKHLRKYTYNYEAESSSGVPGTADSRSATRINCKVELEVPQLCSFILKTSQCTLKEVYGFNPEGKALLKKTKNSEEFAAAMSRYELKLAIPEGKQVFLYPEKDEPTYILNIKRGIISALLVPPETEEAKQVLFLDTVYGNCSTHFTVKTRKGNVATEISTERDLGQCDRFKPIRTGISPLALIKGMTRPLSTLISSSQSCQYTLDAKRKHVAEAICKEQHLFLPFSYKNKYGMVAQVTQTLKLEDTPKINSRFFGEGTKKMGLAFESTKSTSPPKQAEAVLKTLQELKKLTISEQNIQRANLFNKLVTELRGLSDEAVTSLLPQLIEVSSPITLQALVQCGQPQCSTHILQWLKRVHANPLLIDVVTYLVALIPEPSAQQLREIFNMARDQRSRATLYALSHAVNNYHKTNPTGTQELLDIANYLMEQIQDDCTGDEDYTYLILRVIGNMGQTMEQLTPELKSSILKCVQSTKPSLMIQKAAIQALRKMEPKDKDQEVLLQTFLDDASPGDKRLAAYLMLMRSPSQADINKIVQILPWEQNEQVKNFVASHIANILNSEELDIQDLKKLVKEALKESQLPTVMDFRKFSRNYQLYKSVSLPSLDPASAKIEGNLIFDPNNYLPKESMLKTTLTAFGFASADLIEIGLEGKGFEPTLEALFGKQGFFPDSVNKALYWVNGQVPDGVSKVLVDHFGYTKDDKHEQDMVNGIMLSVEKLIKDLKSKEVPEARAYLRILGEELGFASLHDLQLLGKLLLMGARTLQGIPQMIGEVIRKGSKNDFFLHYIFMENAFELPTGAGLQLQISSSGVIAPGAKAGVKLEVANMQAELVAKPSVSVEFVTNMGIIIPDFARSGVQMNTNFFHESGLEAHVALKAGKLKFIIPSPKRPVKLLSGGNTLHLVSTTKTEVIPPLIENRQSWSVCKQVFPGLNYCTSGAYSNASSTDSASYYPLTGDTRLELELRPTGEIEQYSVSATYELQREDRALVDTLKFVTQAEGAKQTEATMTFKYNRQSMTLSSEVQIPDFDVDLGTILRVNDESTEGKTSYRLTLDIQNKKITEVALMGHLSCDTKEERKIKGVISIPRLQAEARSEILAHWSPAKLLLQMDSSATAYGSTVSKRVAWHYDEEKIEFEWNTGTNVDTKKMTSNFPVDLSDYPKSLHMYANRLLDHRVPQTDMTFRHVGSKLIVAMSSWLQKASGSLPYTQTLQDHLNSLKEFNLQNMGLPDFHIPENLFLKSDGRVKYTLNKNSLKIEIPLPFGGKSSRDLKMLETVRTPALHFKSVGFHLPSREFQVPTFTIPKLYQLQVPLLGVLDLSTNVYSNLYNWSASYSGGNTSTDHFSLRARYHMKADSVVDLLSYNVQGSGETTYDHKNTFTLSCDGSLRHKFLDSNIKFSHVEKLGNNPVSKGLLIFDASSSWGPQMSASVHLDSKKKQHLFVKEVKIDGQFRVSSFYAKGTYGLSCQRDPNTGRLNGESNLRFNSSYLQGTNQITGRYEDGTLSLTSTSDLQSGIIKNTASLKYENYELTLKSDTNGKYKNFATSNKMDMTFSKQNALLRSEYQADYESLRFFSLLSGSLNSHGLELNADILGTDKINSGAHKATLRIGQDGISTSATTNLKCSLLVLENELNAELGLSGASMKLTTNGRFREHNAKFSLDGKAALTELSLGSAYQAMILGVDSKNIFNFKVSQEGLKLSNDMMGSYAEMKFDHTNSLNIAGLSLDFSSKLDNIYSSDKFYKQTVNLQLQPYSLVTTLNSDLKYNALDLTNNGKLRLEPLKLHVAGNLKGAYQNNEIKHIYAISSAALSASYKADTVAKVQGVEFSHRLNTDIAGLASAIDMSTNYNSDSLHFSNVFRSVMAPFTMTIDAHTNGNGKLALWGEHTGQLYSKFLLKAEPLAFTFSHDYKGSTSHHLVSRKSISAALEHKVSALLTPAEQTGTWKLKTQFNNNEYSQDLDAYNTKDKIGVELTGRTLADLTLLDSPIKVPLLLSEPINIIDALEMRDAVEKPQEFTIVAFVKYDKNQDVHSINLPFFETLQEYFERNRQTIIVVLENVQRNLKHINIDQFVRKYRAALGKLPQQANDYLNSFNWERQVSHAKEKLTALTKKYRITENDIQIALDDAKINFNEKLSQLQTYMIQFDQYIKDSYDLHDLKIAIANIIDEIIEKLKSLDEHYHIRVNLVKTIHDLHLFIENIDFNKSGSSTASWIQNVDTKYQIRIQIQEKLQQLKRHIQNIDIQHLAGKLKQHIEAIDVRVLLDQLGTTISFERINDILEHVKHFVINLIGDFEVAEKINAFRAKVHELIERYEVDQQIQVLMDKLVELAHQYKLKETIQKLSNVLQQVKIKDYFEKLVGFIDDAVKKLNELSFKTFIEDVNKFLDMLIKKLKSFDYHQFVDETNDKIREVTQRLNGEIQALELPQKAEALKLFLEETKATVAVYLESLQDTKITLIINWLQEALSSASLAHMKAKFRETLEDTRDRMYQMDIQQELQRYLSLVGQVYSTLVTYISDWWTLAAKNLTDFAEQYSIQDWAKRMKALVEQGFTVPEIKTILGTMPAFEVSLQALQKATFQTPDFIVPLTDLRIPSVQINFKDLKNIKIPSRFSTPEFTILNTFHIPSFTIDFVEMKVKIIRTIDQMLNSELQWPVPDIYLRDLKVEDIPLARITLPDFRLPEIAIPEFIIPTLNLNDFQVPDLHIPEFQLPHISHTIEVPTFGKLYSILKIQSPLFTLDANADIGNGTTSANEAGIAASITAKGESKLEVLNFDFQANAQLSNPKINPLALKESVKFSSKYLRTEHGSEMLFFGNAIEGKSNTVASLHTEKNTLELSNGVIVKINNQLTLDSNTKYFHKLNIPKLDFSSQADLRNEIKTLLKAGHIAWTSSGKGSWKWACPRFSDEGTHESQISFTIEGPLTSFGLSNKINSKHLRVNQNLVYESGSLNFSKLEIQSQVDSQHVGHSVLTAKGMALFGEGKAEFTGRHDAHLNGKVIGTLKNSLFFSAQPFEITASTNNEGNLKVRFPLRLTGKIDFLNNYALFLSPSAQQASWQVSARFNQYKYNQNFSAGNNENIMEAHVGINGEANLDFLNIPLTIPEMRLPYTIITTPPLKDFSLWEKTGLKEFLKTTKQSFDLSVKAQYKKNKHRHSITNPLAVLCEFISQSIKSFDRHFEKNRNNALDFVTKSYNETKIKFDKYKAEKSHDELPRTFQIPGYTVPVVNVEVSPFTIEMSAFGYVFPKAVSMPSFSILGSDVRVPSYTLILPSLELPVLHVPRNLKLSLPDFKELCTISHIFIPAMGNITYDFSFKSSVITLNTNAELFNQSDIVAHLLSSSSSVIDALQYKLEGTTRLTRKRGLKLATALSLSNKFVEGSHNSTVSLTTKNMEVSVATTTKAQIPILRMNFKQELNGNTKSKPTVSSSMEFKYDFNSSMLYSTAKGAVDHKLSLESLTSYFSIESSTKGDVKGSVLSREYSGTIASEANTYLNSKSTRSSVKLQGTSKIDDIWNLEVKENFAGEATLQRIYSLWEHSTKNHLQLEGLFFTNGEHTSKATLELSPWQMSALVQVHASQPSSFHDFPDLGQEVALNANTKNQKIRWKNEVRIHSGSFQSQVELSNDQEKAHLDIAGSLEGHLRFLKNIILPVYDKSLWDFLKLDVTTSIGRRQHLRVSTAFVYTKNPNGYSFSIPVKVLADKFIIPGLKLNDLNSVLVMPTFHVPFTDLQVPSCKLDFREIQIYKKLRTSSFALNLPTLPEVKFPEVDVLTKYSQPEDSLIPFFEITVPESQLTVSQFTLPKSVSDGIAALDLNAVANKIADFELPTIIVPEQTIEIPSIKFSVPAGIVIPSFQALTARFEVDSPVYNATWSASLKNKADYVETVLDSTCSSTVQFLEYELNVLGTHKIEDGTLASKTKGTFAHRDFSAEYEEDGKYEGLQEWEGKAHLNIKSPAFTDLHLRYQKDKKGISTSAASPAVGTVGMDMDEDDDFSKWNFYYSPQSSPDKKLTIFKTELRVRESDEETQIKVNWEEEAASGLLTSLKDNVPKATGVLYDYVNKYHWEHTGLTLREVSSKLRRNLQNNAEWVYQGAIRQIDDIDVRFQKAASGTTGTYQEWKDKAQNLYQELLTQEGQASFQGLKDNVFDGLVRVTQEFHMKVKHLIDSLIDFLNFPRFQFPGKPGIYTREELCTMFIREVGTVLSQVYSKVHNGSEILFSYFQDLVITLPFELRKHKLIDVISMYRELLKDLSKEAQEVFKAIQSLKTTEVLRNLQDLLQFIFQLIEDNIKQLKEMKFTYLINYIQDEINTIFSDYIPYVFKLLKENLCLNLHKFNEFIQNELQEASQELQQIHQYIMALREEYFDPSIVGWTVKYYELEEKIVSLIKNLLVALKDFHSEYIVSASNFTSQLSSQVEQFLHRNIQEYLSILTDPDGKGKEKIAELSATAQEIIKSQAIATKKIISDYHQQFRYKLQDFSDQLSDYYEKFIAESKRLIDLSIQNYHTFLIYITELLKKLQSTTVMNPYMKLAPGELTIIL
Source text: To determine if the binding of the monosuccinic acid ester to VLDL and LDL can cause a change in the structure of apoB-100, an immunoreactivity assay was designed. This is a sandwich ELISA assay which measures the expression of a specific epitope on apoB-100. Essentially the sandwich ELISA consists of a specific monoclonal antibody directed to that epitope on apoB-100 as a capture antibody laid onto a microtitre plate. LDL or VLDL added to the plate is bound to the antibody as a result of recognition of the specific epitope. A second polyclonal antibody is then used to quantify the amount of LDL captured.

plasma cholesterol = test: Plasma cholesterol lowering in hamsters; set-up: species or system hamster; conditions: ability to lower plasma cholesterol in vivo in hamsters, yes/no
Description: The monosuccinic acid ester of probucol and several other compounds were tested in vitro in the immunoreactivity cell-free assay described above in Example 3 and in vivo in hamsters for their ability to lower plasma cholesterol.

HepG2 cells = test: Uptake of radioiodinated human LDL by HepG2 cells; type: cell-based; conditions: HepG2, 24 h
Description: In order to test whether the change in structure of LDL by the monosuccinic acid ester of probucol can affect the uptake of this lipoprotein by liver cells in vitro, purified human radioiodinated LDL was mixed with various concentrations of the probucol derivative and incubated for 15 minutes at room temperature. After that, the mixture of LDL and the probucol derivative was added to HepG2 cells in culture and the uptake of radiolabeled LDL measured after 24 h. At each concentration of compound, the specific uptake of LDL was also determined by examining LDL uptake in the presence of excess unlabeled LDL.

[1] = target: T2, other epitopes on LDL apoB-100 (Homo sapiens, UniProt P04114); test: Epitope specificity: four other monoclonal antibodies (1D, 2D8, 5E11, 4G3) against apoB-100 on LDL; type: binding
T2 construct: from tissue; host or cells: LDL particles (plasma lipoprotein)
T2 sequence (P04114 28-4563): as above
Source text: The specificity of epitope expression changes by the monosuccinic acid ester of probucol were established by examining MSE's effects on other epitopes on LDL. This was probed by using four other monoclonal antibodies (1D, 2D8, 5E11, 4G3) in comparison to the Boehringer Mannheim (Band M) antibody used in the assays described above.

purified human LDL = target: T3, purified human LDL (Homo sapiens, UniProt P04114); test: Agarose electrophoresis of purified human LDL mixed with compound; type: binding
T3 construct: from tissue; host or cells: human LDL particles (plasma lipoprotein)
T3 sequence (P04114 28-4563): as above
Description: Agarose electrophoresis is a technique used to separate and study lipoproteins. The monosuccinic acid ester of probucol was added to purified human LDL and the mixture was run on agarose electrophoresis.

VLDL and LDL clearance = test: Lipoprotein turnover study in monkeys (stable isotope labelling of apoB-100); type: in vivo, monkey; conditions: monkeys, 25 mg/kg/day
Description: A lipoprotein turnover study was performed in monkeys that were dosed with the monosuccinic acid ester of probucol (25 mg/kg/day for one four weeks). The clearance rates of VLDL and LDL were examined before and after treatment of the animals using a stable isotope technique to label apoB-100 in VLDL and LDL.

[2] = rabbit, in vivo, po, 150 mg/kg/day
Description: To examine if the monosuccinic acid ester of probucol partitions with plasma circulating lipoproteins, rabbits were fed a high-fat diet for six weeks and dosed with the compound at a dose of 150 mg/Kg per day orally. The animals were bled at six weeks and plasma lipoproteins isolated at high-speed using ultra-centrifugation.
Whole plasma was fractionated by fast phase liquid chromatography (FPLC) using a Superose 6HR 10/30 column. Elution was performed in a phosphate-buffered saline solution containing 0.01% EDTA and 0.02% NaN3 at a flow rate of 0.3 m/min. Approximately 0.6 ml was collected for each fraction and 20 fractions were available for analysis. The cholesterol content of the peaks corresponding to low density lipoprotein (LDL) and high density lipoprotein (HDL) were compared to CDC reference methods. VLDL corresponds to fractions 4-8 (elution volumes 7.2-9.6), LDL to fractions 9-16 (elution volume 10.2-14.4) and HDL to fractions 17-23 (elution volume 15-18.6).
The monosuccinic acid ester of probucol (MSE) levels in the different lipoprotein fractions were determined by high pressure liquid chromatography (HPLC) using a Rainin C 18 column (830201-C). Fractions corresponding to the different lipoprotein fractions were pooled and dried down by centrifugation under vacuum and resuspended in 0.5 ml of phosphate buffered saline. MSE was extracted with 0.5 ml of ether. 100 ul of the ether solution was added to 400 ul of acetonitrile and 0.02 ml was loaded onto the column. The mobile phase was 75:20:5 acetonitrile, methanol, and 50 mM acetic acid in methanol.
The amount of the MSE bound to each of the lipoproteins was estimated.

[3] = target: T4, specific epitope on apoB-100 of LDL (Homo sapiens, UniProt P04114); test: Immunoreactivity cell-free sandwich ELISA: binding of LDL to capture anti-apoB monoclonal antibody
T4 construct: from tissue; host or cells: LDL particles (plasma lipoprotein)
T4 sequence (P04114 28-4563): as above
Source text: To determine if the binding of the monosuccinic acid ester to VLDL and LDL can cause a change in the structure of apoB-100, an immunoreactivity assay was designed. This is a sandwich ELISA assay which measures the expression of a specific epitope on apoB-100. Essentially the sandwich ELISA consists of a specific monoclonal antibody directed to that epitope on apoB-100 as a capture antibody laid onto a microtitre plate. […] A second polyclonal antibody is then used to quantify the amount of LDL captured.
The detailed immunoreactivity protocol is as follows. A nunc maxi-sorp microtiter plate is coated overnight at 4° C. with 100 μl of Anti-Human ApoB monoclonal antibody from Boehringer Mannheim (catalog # 1533 975) diluted 1:1000 in PBS pH 7.4. The compounds are dissolved in DMSO with appropriate concentration of LDL for 15 minutes and incubated at 37° C.
The coated microtiter plate is washed three times with 200 μl PBS/0.05% tween, and a sample of 100 μl LDL/Compound or LDL standard is added to each well. The plates are then incubated for 2 hours at room temperature.
The microtiter plate is washed three times with 200 μl PBS/0.05% tween, and 100 μl of 1:2000 Polyclonal Human Anti-ApolipoproteinB from Boehringer Mannheim (catalog # 726 494) in PBS/tween 0.05% is added. The plate is incubated for one hour at room temperature.
The microtiter plate is washed three times with 200 ul PBS/0.05% tween, and 100 μl of 1:2000 Anti-Sheep Ig peroxidase from Boehringer Mannheim (catalog # 605 345) in PBS/05% tween is added. The plate is incubated for one hour at room temperature.
The microtiter plate is washed three times with 200 ul PBS/0.05% tween, and 100 μl of TMB substrate is added and incubated for 5-10 minutes in the dark. The reaction is stopped with 15 μl 8N H2SO4 and read on the Bio-Rad Microplate plate reader at 450 nm within 30 minutes.

Question: What does the source list for CC(C)(Sc1cc(C(C)(C)C)c(O)c(C(C)(C)C)c1)Sc1cc(C(C)(C)C)c(OC(=O)CCC(=O)O)c(C(C)(C)C)c1 [MSE, Butanedioic acid, mono[4-[[1-[[3,5-bis(1,1-dimethylethyl)-4-hydroxyphenyl]thio]-1-methylethyl]thio]-2,6-bis(1,1-dimethylethyl)phenyl] ester]?
Answer: effect on total plasma cholesterol levels (total plasma cholesterol): did not result in any significant effects; increase of binding of VLDL apoB-100 epitope to the antibody relative to native VLDL (apoB-100 epitope in VLDL): about 375%; Hamster (plasma cholesterol): yes; increase of specific uptake of LDL relative to absence of MSE (HepG2 cells; 18 uM): 12.8%; increase of specific uptake of LDL relative to absence of MSE (HepG2 cells; 25.5 uM): 77.6%; increase of specific uptake of LDL relative to absence of MSE (HepG2 cells; 33 uM): 249%; expression of epitopes detected by the other four antibodies against apoB-100 [1]: unaffected; shift of electrophoretic mobility of LDL (purified human LDL): shifted the mobility of LDL; LDL clearance rates (VLDL and LDL clearance): increased; clearance of VLDL after treatment relative to before dosing (VLDL and LDL clearance): marked enhancement; production of VLDL or LDL (VLDL and LDL clearance): no apparent effects; MSE recovered in the different lipoprotein fractions [2]: > 80%; amount found in the non-lipoprotein plasma fraction [2]: Very little; distribution of MSE among lipoprotein fractions [2]: most being found in the VLDL fraction, followed by LDL and some in IDL and HDL; increase of binding of LDL to the capture monoclonal antibody ([3]; 15 uM): 300%; increase of binding of LDL to the capture monoclonal antibody ([3]; 30 uM): 500%; epitope expression on LDL detected by the Boehringer Mannheim antibody ([3]; FIG. 7): significantly enhanced; Cell-Free Assay ([3]; immunoreactivity cell-free assay of Example 3, yes/no): yes
